In the experiment the test system is primary human hepatocytes. In words: Western blot of insulin signaling in primary human hepatocytes. Format: cell-based. The method, then: Cells were pre-treated with increasing dose of MLN4924 for 1 h followed by 100 nM insulin stimulation for 4 h. Western blot was then performed to evaluate insulin signaling activation reflected by AKT phosphorylation.
Cells were treated with MLN4924 for 8 h. IRS1 band densitometry is shown as mean ± SEM of 8-9 independent batches. “* ”, vs. Vehicle, p less than 0.05.
Cells were treated with MLN4924 for 8 h. IRS2 band densitometry is shown as mean ± SEM of 8-9 independent batches. “* ”, vs. Vehicle, p less than 0.05.
FIG. 18B is a Western blot analysis showing that MLN4924 enhances hepatocyte insulin responsiveness (signaling) by delaying feedback IRS degradation. Primary human hepatocytes cells were serum starved for 16 h. Cells were then pre-treated with MLN4924 for 1 h followed by insulin stimulation for 4 h.
IRS protein in IRS 1 and IRS2 band intensity was normalized to Actin band intensity. n=8-9. “*”, p<0.05 (unpaired t-test), vs. Vehicle.
AML12 cells were a generous gift from Dr. Yanqiao Zhang (Northeast Ohio Medical University). AML12 cells were cultured in DMEM medium supplemented with a mixture of insulin-transferrin-selenium (#41400-045, ThermoFisher, Waltham, MA). For experiments, cells were cultured in serum free medium overnight before various treatments were initiated. The siGENOME SMARTpool siRNA and siControl were purchased from Dharmacon, Inc. (Lafayette, CO). […]
A general note: A western blot detects proteins with antibodies after separation by electrophoresis.

“Also recorded” adds a separate entry of the source.

As to `NS(=O)(=O)OC[C@@H]1C[C@@H](n2ccc3c(N[C@H]4CCc5ccccc54)ncnc32)C[C@@H]1O` [MLN4924, ((1S,2S,4R)-4-(4-((1S)-2,3-dihydro-1H-inden-1-ylamino)-7H-pyrrolo[2,3-d]pyrimidin-7-yl)-2-hydroxycyclopentyl) methyl sulfamate], the “IRS1 and IRS2 protein abundance” value (MLN4924 (500 nM) 8 h, independent batches) is “consistently increased IRS1 and IRS2 protein abundance; also recorded: increased IRS protein abundance”. For the same molecule, under “MLN4924 pre-treatment 1 h, 100 nM insulin 4 h”, the “insulin activation of AKT” value is “enhanced insulin activation of AKT; also recorded: increased IRS protein abundance and insulin-stimulated AKT activation”.

(Values after patent US20230218654A1, “COMPOSITIONS AND METHODS FOR TREATING HYPERGLYCEMIA IN TYPE-2 DIABETES” (The Board of Regents of the university of Oklahoma, priority 2020, published 2023).)
